Experimental data: patent US20170216252A1, “ANTI-BACTERIAL PYRUVATE KINASE MODULATOR COMPOUNDS, COMPOSITIONS, USES AND METHODS” (SIMON FRASER UNIVERSITY, priority 2014, published 2017)
Converted amounts (≈) assume the structure as drawn. Like-named read-outs stand apart in the source and are kept apart here.

What was measured:
[1] = target: T1, MRSA PK (Staphylococcus aureus, UniProt Q6GG09); assay: MRSA PK activity, continuous LDH-coupled assay; type: biochemical, S. aureus (MRSA strain Sanger 252)
T1 construct: His tag (pET-28a(+) vector) (N); made in house; host or cells: E. coli BL-21 (DE3)
T1 sequence (Q6GG09 whole entry): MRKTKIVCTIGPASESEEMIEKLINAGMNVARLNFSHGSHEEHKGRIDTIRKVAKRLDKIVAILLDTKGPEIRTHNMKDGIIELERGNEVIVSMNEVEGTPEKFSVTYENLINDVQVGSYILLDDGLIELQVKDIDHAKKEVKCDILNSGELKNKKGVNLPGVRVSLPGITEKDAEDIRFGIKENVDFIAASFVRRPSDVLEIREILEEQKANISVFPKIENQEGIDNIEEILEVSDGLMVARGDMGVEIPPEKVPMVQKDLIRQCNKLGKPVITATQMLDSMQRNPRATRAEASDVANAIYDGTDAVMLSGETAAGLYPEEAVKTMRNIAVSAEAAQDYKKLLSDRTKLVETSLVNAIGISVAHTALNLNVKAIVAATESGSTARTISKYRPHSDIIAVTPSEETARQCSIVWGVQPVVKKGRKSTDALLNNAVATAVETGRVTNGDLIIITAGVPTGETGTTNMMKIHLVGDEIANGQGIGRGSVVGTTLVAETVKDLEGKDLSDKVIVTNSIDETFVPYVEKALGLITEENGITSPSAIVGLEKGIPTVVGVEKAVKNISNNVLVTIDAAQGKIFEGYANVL
How it was run: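 Activity was tracked as the 340 nm absorbance fall from NADH oxidation via coupled LDH, at 30 °C for ≤5 min. Reactions began on adding 15 nM recombinant His-tagged S. aureus PK, with inhibitor DMSO kept ≤1%. Four-parameter dose–response fitting gave IC50.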

[2] = tested on: S. aureus ATCC 29213; assay: In vitro susceptibility, broth microdilution MIC; type: cell-based, Staphylococcus aureus
Description: The antimicrobial activities of PK inhibitor candidates were determined using the 96-well microtiter standard 2-fold serial broth microdilution method as described by CLSI (formerly NCCLS) with the various gram-positive and gram-negative bacteria species mentioned above. Bacteria from a single colony were grown, overnight in either BHI Broth (VRE), mueller hinton broth (S. aureus 29213; MRSA USA400) or L-broth (E. coli, P. aeruginosa, S. typhimuriu, K. Pneumonia and A. baumannii). […] Culture plates were incubated for 18-24 h at 37° C., and optical density at 600 nm (OD600) was measured using a Benchmark Plus™ microplate spectrophotometer (Bio-Rad™). The absorbance control values for the series containing CAMHB and inhibitor were subtracted as background from the corresponding infected wells. The MIC was defined as the lowest concentration of test compound leading to complete inhibition of cell growth in relationship to compound-free control wells as determined by optical density. […] All assays were run in triplicate (Tables 1-6) or duplicate. Experiments were replicated at least twice to verify reproducibility using the above conditions.

[3] = Staphylococcus aureus, ATCC29213, Tables 1-6 and text, minimum concentration to give >98% inhibition of growth, read-out: MIC
[4] = read-out: % inhibition at the highest concentration tested (IC50)
[5] = Staphylococcus aureus, ATCC29213, Table 8, tested at least in duplicate, differing values all given, read-out: MIC

SMILES: O=C(Nc1nc2ccc(Br)cc2[nH]1)c1cc2ccc(Br)cc2[nH]1 [Compound 80, 6-Bromo-N-(6-bromo-1H-benzo[d]imidazol-2-yl)-1H-indole-2-carboxamide]
- IC50 [1]: 1.5 nM
- MIC [2, 3]: > 64 µg/mL

SMILES: Brc1ccc2cc(-c3ccc(-c4ccn[nH]4)s3)[nH]c2c1 [Compound 81, 2-(5-(1H-Pyrazol-5-yl)thiophen-2-yl)-6-bromo-1H-indole]
- IC50 [1]: 74.5 nM
- MIC [2, 3]: 0.5 µg/mL (≈ 1.45 µM)

SMILES: O=C(Nc1nc2ccc(Br)cc2s1)c1cc2cc(Br)ccc2[nH]1 [Compound 82, 5-Bromo-N-(6-bromobenzo[d]thiazol-2-yl)-1H-indole-2-carboxamide]
- IC50 [1]: 22.5 nM
- MIC [2, 3]: > 64 µg/mL

SMILES: O=C(Nc1nc2ccc(Br)cc2s1)c1cccc(Cl)c1O [Compound 83, N-(6-bromobenzo[d]thiazol-2-yl)-3-chloro-2-hydroxybenzamide]
- inhibition at 1 µM [1, 4]: 89%
- MIC [2, 3]: 4 µg/mL (≈ 10.4 µM)

SMILES: COc1c(Br)cccc1C(=O)Nc1nc2ccc(Br)cc2s1 [Compound 84, 3-Bromo-N-(6-bromobenzo[d]thiazol-2-yl)-2-methoxybenzamide]
- inhibition at 10 µM [1, 4]: 84%
- MIC [2, 3]: > 64 µg/mL

SMILES: O=C(Nc1nc2ccc(Br)cc2s1)c1cc(Br)cc(Br)c1O [Compound 85, 3,5-dibromo-N-(6-bromobenzo[d]thiazol-2-3/1)-2-hydroxybenzamide]
- IC50 [1]: 4.1 nM
- MIC [2, 3]: 1 µg/mL (≈ 1.97 µM)

SMILES: Oc1ccc(Br)cc1-c1ccnc(-c2cc3ccc(Br)cc3[nH]2)c1 [Compound 86, 4-bromo-2-(2-(6-bromo-1H-indol-2-yl)pyridin-4-yl)phenol]
- inhibition at 10 µM [1, 4]: 62%
- MIC [2, 3]: > 64 µg/mL

SMILES: O=C(c1cc2ccc(Br)cc2[nH]1)c1cc(Br)ccc1O [Compound 87, (6-Bromo-1H-indol-2-yl)(5-bromo-2-hydroxyphenyl)methanone]
- inhibition at 10 µM [1, 4]: 58%
- MIC [2, 3]: > 64 µg/mL

SMILES: CC(=O)c1c(-c2cc3ccccc3[nH]2)[nH]c2cc(Br)ccc12 [Compound 91, 1-(6-bromo-1H,1′H-[2,2′-biindol]-3-yl)ethan-1-one]
- IC50 [1]: 7.7 nM
- MIC [2, 3]: 4 µg/mL (≈ 11.3 µM)

SMILES: Clc1cc(Cl)cc(/C=C/c2cc3ccc(Br)cc3[nH]2)c1 [Compound 95, (E)-6-Bromo-2-(3,5-dichlorostyryl)-1H-indole]
- IC50 [1]: < 50 nM
- MIC [2, 5]: 7.1 µg/mL (≈ 19.3 µM)
- MIC ([2]; Table 8, tested at least in duplicate, differing values all given): 8 µg/mL (≈ 21.8 µM)

SMILES: Clc1cccc(/C=C/c2cc3ccc(Br)cc3[nH]2)c1 [Compound 96, (E)-6-Bromo-2-(3-chlorostyryl)-1H-indole]
- IC50 [1]: 100 to 1000 nM
- MIC [2, 5]: > 64 µg/mL

SMILES: O=[N+]([O-])c1cc(/C=C/c2cc3ccc(Br)cc3[nH]2)ccc1Cl [Compound 97, (E)-6-Bromo-2-(4-chloro-3-nitrostyryl)-1H-indole]
- EC50 [1]: 8.6 nM
- MIC [2, 5]: > 64 µg/mL

SMILES: Clc1ccc(/C=C/c2cc3ccc(Br)cc3[nH]2)cn1 [Compound 98, (E)-6-Bromo-2-(2-(6-chloropyridin-3-yl)vinyl)-1H-indole]
- IC50 [1]: < 50 nM
- MIC [2, 5]: > 64 µg/mL

SMILES: Brc1ccc(/C=C/c2cc3ccc(Br)cc3[nH]2)nc1 [Compound 99, (E)-6-Bromo-2-(2-(5-bromopyridin-2-yl)vinyl)-1H-indole]
- IC50 [1]: 50 to 100 nM
- MIC [2, 5]: 32 µg/mL (≈ 84.6 µM)

SMILES: Brc1cncc(/C=C/c2cc3ccc(Br)cc3[nH]2)c1 [Compound 100, (E)-6-Bromo-2-(2-(5-bromopyridin-3-yl)vinyl)-1H-indole]
- IC50 [1]: > 1000 nM
- MIC [2, 5]: > 64 µg/mL

SMILES: Brc1ccc2cc(/C=C/c3ccc4ccccc4n3)[nH]c2c1 [Compound 101, (E)-2-(2-(6-bromo-1H-indol-2-yl)vinyl)quinoline]
- IC50 [1]: > 1000 nM
- MIC [2, 5]: > 64 µg/mL
- MIC [2, 3]: > 64 µg/mL

SMILES: FC(F)(F)c1ccc(/C=C/c2cc3ccc(Br)cc3[nH]2)cc1 [Compound 102, (E)-6-Bromo-2-(4-(trifluoromethyl)styryl)-1H-indole]
- IC50 [1]: 100 to 1000 nM
- MIC [2, 5]: 64 µg/mL (≈ 175 µM)

SMILES: Fc1ccc(/C=C/c2cc3ccc(Br)cc3[nH]2)cc1 [Compound 103, (E)-6-Bromo-2-(4-fluorostyryl)-1H-indole]
- IC50 [1]: > 1000 nM
- MIC [2, 5]: > 64 µg/mL

SMILES: Brc1ccc2cc(/C=C/c3ccc(-n4ccnc4)cc3)[nH]c2c1 [Compound 104, (E)-2-(4-(1H-Imidazol-1-yl)styryl)-6-bromo-1H-indole]
- IC50 [1]: > 1000 nM
- MIC [2, 5]: > 64 µg/mL

SMILES: Brc1ccc2cc(/C=C/c3cc(-c4ccccc4)on3)[nH]c2c1 [Compound 105, (E)-3-(2-(6-Bromo-1H-indol-2-yl)vinyl)-5-phenylisoxazole]
- IC50 [1]: > 100000 nM
- MIC [2, 5]: > 64 µg/mL

SMILES: Cc1ccc(/C=C/c2cc3ccc(Br)cc3[nH]2)cn1 [Compound 106, (E)-6-Bromo-2-(2-(6-methylpyridin-3-yl)vinyl)-1H-indole]
- IC50 [1]: > 1000 nM
- MIC [2, 5]: > 64 µg/mL

SMILES: COc1ccc(/C=C/c2cc3ccc(Br)cc3[nH]2)nc1 [Compound 107, (E)-6-Bromo-2-(2-(5-methoxypyridin-2-yl)vinyl)-1H-indole]
- IC50 [1]: 50 to 100 nM
- MIC [2, 5]: > 64 µg/mL

SMILES: Clc1ccc(/C=C/c2cc3ccc(Br)cc3[nH]2)nc1 [Compound 108, (E)-6-Bromo-2-(2-(5-chloropyridin-2-yl)vinyl)-1H-indole]
- IC50 [1]: 100 to 1000 nM
- MIC [2, 5]: > 64 µg/mL

SMILES: Cc1cnc(/C=C/c2cc3ccc(Br)cc3[nH]2)cn1 [Compound 109, (E)-6-Bromo-2-(2-(5-methylpyrazin-2-yl)vinyl)-1H-indole]
- IC50 [1]: > 1000 nM
- MIC [2, 5]: > 64 µg/mL

SMILES: Brc1ccc2cc(/C=C/c3cn4ccccc4n3)[nH]c2c1 [Compound 110, (E)-2-(2-(6-Bromo-1H-indol-2-yl)vinyl)imidazo[1,2-a]pyridine]
- IC50 [1]: < 50 nM
- MIC [2, 5]: > 64 µg/mL

SMILES: Clc1cnc(/C=C/c2cc3ccc(Br)cc3[nH]2)cn1 [Compound 118, (E)-6-Bromo-2-(2-(5-chloropyrazin-2-yl)vinyl)-1H-indole]
- IC50 [1]: 50 to 100 nM
- MIC [2, 5]: 16 µg/mL (≈ 47.8 µM)

SMILES: Clc1cc(Cl)cc(CCc2cc3ccc(Br)cc3[nH]2)c1 [Compound 119, 6-Bromo-2-(3,5-dichlorophenethyl)-1H-indole]
- IC50 [1]: > 100000 nM
- MIC [2, 5]: > 64 µg/mL

SMILES: Clc1ccc(CCc2cc3ccc(Br)cc3[nH]2)cn1 [Compound 120, 6-Bromo-2-(2-(6-chloropyridin-3-yl)ethyl)-1H-indole]
- IC50 [1]: 50 to 100 nM
- MIC [2, 5]: > 64 µg/mL

SMILES: Brc1cncc(CCc2cc3ccc(Br)cc3[nH]2)c1 [Compound 121, 6-Bromo-2-(2-(5-bromopyridin-3-yl)ethyl)-1H-indole]
- IC50 [1]: > 1000 nM
- MIC [2, 5]: > 64 µg/mL

SMILES: Brc1ccc2cc(CCc3cn4ccccc4n3)[nH]c2c1 [Compound 125, 2-(2-(6-Bromo-1H-indol-2-yl)ethyl)imidazo[1,2-a]pyridine]
- IC50 [1]: > 1000 nM
- MIC [2, 5]: > 64 µg/mL

SMILES: Brc1ccc2cc(CCc3cn4c(n3)CCCC4)[nH]c2c1 [Compound 126, 2-(2-(6-Bromo-1H-indol-2-yl)ethyl)-5,6,7,8-tetrahydroimidazo[1,2-a]pyridine]
- IC50 [1]: > 100000 nM
- MIC [2, 5]: 64 µg/mL (≈ 186 µM)

SMILES: CC(=O)c1c(CCc2cn3c(n2)CCCC3)[nH]c2cc(Br)ccc12 [Compound 127, 1-(6-Bromo-2-(2-(5,6,7,8-tetrahydroimidazo[1,2-a]pyridin-2-yl)ethyl)-1H-indol-3-yl)ethan-1-one]
- IC50 [1]: > 100000 nM
- MIC [2, 5]: 64 µg/mL (≈ 166 µM)

SMILES: O=C(Nc1ccc(Cl)cc1)c1cc2ccc(Br)cc2[nH]1 [Compound 128, 6-bromo-N-(4-chlorophenyl)-1H-indole-2-carboxamide]
- IC50 [1]: 17 nM
- MIC [2, 5]: > 64 µg/mL

SMILES: O=C(Nc1ccc(Cl)cc1)c1[nH]c2cc(Br)ccc2c1C(=O)O [Compound 129, 6-Bromo-2-((4-chlorophenyl)carbamoyl)-1H-indole-3-carboxylic acid]
- IC50 [1]: < 50 nM
- MIC [2, 5]: 16 µg/mL (≈ 40.6 µM)

SMILES: COC(=O)c1c(C(=O)Nc2ccc(Cl)cc2)[nH]c2cc(Br)ccc12 [Compound 130, Methyl 6-bromo-2-((4-chlorophenyl)carbamoyl)-1H-indole-3-carboxylate]
- IC50 [1]: < 50 nM
- MIC [2, 5]: > 64 µg/mL
